This test addresses NEDD8-conjugating enzyme Ubc12 (Homo sapiens) + NEDD8-activating enzyme E1 regulatory subunit (Homo sapiens) (UniProt P61081+Q13564). Put plainly: NEDD8 conjugation to CUL1 blockade – biochemical, TR-FRET, dose response (AID 652247). Conditions: in vitro CUL1 neddylation. Background: In TR-FRET formats the signal depends on donor and acceptor labels being close together.

Active and inactive are the calls of the source. The rule behind the calls is not given here. Some results are limits rather than exact numbers.

By IC50 is commonly meant the concentration that inhibits the measured activity by half.

Sequence of NEDD8-conjugating enzyme Ubc12 (Homo sapiens) + NEDD8-activating enzyme E1 regulatory subunit (Homo sapiens) (P61081 whole entry, looked up): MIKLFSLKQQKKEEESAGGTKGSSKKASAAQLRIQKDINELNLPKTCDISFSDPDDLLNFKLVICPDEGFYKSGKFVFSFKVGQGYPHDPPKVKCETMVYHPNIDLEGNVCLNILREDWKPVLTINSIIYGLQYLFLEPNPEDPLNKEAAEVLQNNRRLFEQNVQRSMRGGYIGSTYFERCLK
Sequence of NEDD8-conjugating enzyme Ubc12 (Homo sapiens) + NEDD8-activating enzyme E1 regulatory subunit (Homo sapiens) (Q13564 whole entry, looked up): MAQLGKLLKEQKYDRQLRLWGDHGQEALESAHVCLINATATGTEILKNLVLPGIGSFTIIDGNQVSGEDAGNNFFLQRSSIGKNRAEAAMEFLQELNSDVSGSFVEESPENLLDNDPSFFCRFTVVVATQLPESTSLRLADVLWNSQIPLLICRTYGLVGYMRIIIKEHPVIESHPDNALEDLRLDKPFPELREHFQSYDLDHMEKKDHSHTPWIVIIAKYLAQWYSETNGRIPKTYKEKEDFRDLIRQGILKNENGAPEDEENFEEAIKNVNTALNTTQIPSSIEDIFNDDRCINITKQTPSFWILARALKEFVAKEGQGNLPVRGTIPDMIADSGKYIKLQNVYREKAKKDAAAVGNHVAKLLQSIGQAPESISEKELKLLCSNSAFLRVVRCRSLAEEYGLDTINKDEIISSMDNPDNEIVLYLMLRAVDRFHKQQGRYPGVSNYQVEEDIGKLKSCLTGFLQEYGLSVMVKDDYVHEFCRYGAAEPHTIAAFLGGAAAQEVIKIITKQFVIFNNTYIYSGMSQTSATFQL

For the compound `COc1ccc(-c2cc(C(=O)N(C)CC(=O)Nc3ccccc3Cl)c3ccccc3n2)cc1OC`, the IC50 result was “inactive”.
The result for `O=C(Nc1ccc2c(c1)OCO2)c1cc(-c2ccc(O)cc2)on1` reads “inactive”.
The entry for `Cc1nn(C)cc1CN(C)C(=O)c1cc2nc(-c3ccco3)cc(C(F)(F)F)n2n1` is “inactive”; for `Cc1ccc(C(=O)N/C(=C\c2cccs2)c2nc3ccccc3[nH]2)cc1` it is “inactive”; for `COc1ccc(-c2cc3nc(NCCN4CCCC4)n(C)c(=O)c3s2)cc1OC` it is “inactive”.
The result for `CS(=O)(=O)N(CC(=O)N/N=C/c1cccc2c1OCCO2)c1ccccc1Br` reads “inactive”.
Take `O=c1[nH]c2ccccc2nc1-c1ccccc1`: the IC50 result was “inactive”.
`CC1CCN(C(=O)CN2c3cccc4cccc(c34)S2(=O)=O)CC1`: the IC50 result is “inactive”.
For `COc1cc(F)ccc1-c1cc(C(=O)Nc2ccc(NC(C)=O)cc2)[nH]n1`, the IC50 was 19.4 µM.
The entry for `CC1CCN(C(=O)Nc2ccc3nsnc3c2)CC1` is “inactive”.
The result for `OC1CCCN(Cc2c3ccccc3cc3ccccc23)C1` (stereo not drawn) reads “inactive”; that for `NC(=O)C1CCN(C(=O)c2ccc3nc(-c4ccccc4)c(-c4ccccc4)nc3c2)CC1`, “inactive”.
For the compound `O=C(O)c1cc(N2CCCCC2)nc2ccccc12`, the IC50 result was “inactive”.
In the case of `O=C(NC1CCCCC1)c1cnn2c(C(F)(F)F)cc(-c3ccco3)nc12`, the IC50 result is “inactive”.
With `CC1(C)CC(NC(=O)COc2ccc3c4c(c(=O)oc3c2)CCCC4)CC(C)(C)N1`, the IC50 entry is “inactive”.
The entry for `COc1ccc(OC)c(C=NNC(=O)c2ccc(NS(=O)(=O)c3cccs3)cc2)c1` is “inactive”.
The result for `COC(=O)CSc1ccc2c(N)c(C(=O)OC)sc2c1` reads “inactive”; that for `Cc1cc(=O)oc2cc(NC(=O)CN3C(=O)NC(C)(c4ccccc4)C3=O)ccc12` (stereo not drawn), “inactive”.
The result for `O=c1c[n+]([O-])c2ccccc2n1OCc1c(F)cccc1F` reads “inactive”; that for `Cc1cccc(OCC(=O)N/N=C/c2ccc(N(C)C)cc2)c1`, “inactive”; that for `COc1ccc(Nc2cc3n(c(=O)n2)CCc2cc(OC)c(OC)cc2-3)cc1`, “inactive”.
Take `COC(=O)C1C(O)=C(C=Nc2cccc3ccccc23)C(=O)CC1(C)C` (stereo not drawn): the IC50 result is “inactive”.
The figure for `N#Cc1ccc(/C=C2\CCn3c2nc2cc(C(=O)O)ccc2c3=O)cc1` is 14.5 µM; for `O=C(O)c1ccc2c(=O)n3c(nc2c1)/C(=C/c1ccc(OC(F)F)cc1OC(F)F)CC3` it is “inactive”.
The entry for `COCCN(C(=O)COC(=O)c1cc2ccccc2cc1OC)c1c(N)n(Cc2ccccc2)c(=O)[nH]c1=O` is “inactive”; for `Cc1cc(C)cc(N(CC(=O)NC2CCCC2)C(=O)C2(C)CC(=O)N=C3C=CC=CN32)c1` (stereo not drawn) it is “inactive”; for `Cc1c(C(C)NC(=O)c2cc(COc3cccc4cnccc34)on2)cnn1C` (stereo not drawn) it is “inactive”.
The result for `NNC(=O)c1ccc(CSc2cccc3cccnc23)cc1` reads “inactive”.
`Cc1ccc2c(c1)COc1c3ccc(C(=O)NCC4CC4)cc3nn1-2`: the IC50 entry is “inactive”.
The entry for `C(=C\c1ccc2nncn2c1)/c1ccccc1` is “inactive”; for `CCNC(=O)/C(C#N)=C/c1c(N2CCN(c3ccccc3)CC2)nc2ccccn2c1=O` it is “inactive”.
The result for `Cc1ccc(C)c(OCC(=O)N/N=C/c2ccc(N3CCOCC3)cc2)c1` reads “inactive”.
For `O=C(CCc1ccccc1)Nc1nnc(-c2ccccn2)o1`, the IC50 result is “inactive”.
For `CCN(CC)c1ccc(/C=N/NC(=O)C(O)c2ccccc2)cc1` (stereo not drawn), the IC50 entry is “inactive”.
In the case of `c1cnc2cc(-c3ccsc3)ncc2c1`, the IC50 entry is “inactive”.
For the compound `CN1CCOc2c1cnn(CCO)c2=O`, the IC50 result was “inactive”.
For `O=c1[nH]cnc2nc(-c3ccccc3)c(-c3ccccc3)nc12`, the IC50 entry is “inactive”.
In the case of `COC(=O)C1=C(C)NC2=C(C(=O)CCC2)C1c1ccc(-c2ccsc2C(=O)OC)o1` (stereo not drawn), the IC50 result is “inactive”.
The result for `N#Cc1c2c(c(NCCOCCO)n3c1nc1ccccc13)CCCC2` reads “inactive”; that for `Cc1ccc2cc3cc(C(=O)NCCCN4CCc5ccccc5C4)oc3nc2c1`, 10.6 µM.
Take `Cn1ncc2cc3c(Nc4ccc(Cl)cc4)cccc3nc21`: the IC50 entry is “inactive”.
`c1cn2c(-c3ccoc3)cncc2n1`: the IC50 entry is “inactive”.
As for `CN(C)c1ccc(-c2nc3cnccn3c2Nc2ccc3c(c2)OCCO3)cc1`, the IC50 entry was “inactive”.
As for `Oc1ccc(Br)cc1C=Nc1ccc2c3c(cccc13)CC2`, the IC50 is 12.1 µM.
For the compound `Cc1cc(NS(=O)(=O)c2ccc(NC(=O)c3cc4c(=O)n5ccccc5nc4s3)cc2)nc(C)n1`, the IC50 is 18 µM.
The result for `COc1ccc(CCNc2oc(-c3ccco3)nc2C#N)cc1` reads “inactive”; that for `Cc1csc(NC(=O)c2cc(=O)[nH]c3ccc(S(=O)(=O)N4CCOCC4)cc23)n1`, “inactive”; that for `CCOC(=O)C1=C(COCCN)NC(C)=C(C(=O)OC)C1c1ccccc1Cl` (stereo not drawn), “inactive”.
Consider `Cc1ccc2nc(-c3ccc(NC(=O)COCC(=O)O)cc3)sc2c1`, for which the IC50 was > 100 µM (inactive).
`CCOC(=O)CNC(=O)c1sc(NC(=O)c2ccccc2F)nc1C`: the IC50 result was “inactive”.
The result for `CCc1ccc(-c2cnc3nc[nH]c(=O)c3n2)cc1` reads 14.4 µM.
The figure for `COc1ccc(/C=C/c2ccc(=O)n(Cc3ccccc3)n2)cc1` is > 100 µM (inactive); for `COC(=O)C1=C(C)NC2=C(C(=O)C(C(=O)OC)C(c3ccc(OC)cc3)C2)C1c1ccccn1` (stereo not drawn) it is “inactive”.
With `c1ccc(C[n+]2cccc3c4ccccc4ccc32)cc1`, the half-maximal inhibitory concentration (IC50) is 9.52 µM.
Regarding `C=CCNC(=S)N/N=C/c1ccc(N(CC)Cc2ccccc2)cc1`, the IC50 result was “inactive”.
The entry for `CCCCN(C)C(=O)c1cc2cc3ccc(OC)cc3nc2o1` is “inactive”.
The figure for `Cc1c(Cc2ccccc2)c(=O)oc2c(C)c(OCc3nn[nH]n3)ccc12` is > 100 µM (inactive).
In the case of `COC(=O)c1sc2nc3c(cc2c1N)COC(C)(C)C3`, the IC50 entry was “inactive”.
For the compound `O=C1NC(=O)c2cc3ccccc3cc21`, the IC50 was > 100 µM (inactive).
On to `Cn1c(=O)c(-c2ccccc2)nc2ccccc21`, for which the IC50 entry was “inactive”.
The entry for `O=C(O)c1ccc(/C=N/NC(=O)c2ccc(CN3c4cccc5cccc(c45)S3(=O)=O)cc2)cc1` is “inactive”; for `CN(C)CCn1c(SCc2ccccc2C#N)nc2c(sc3ccccc32)c1=O` it is “inactive”.
The result for `CCn1c(=O)c(-c2ccccc2)c(O)c2ccccc21` reads 17 µM.
The result for `CCCCc1c(O)n2c(nc3ccccc32)[nH]c1=O` reads “inactive”; that for `COC(=O)c1nc2cc3c(cc2c(C)c1C(=O)OC)OCO3`, “inactive”; that for `CCN(CC)CCOC(=O)c1ccc(N/C=C(/C#N)c2nc(-c3ccc(OC)cc3)cs2)cc1`, > 100 µM (inactive).
Consider `S=c1[nH]c2nc(Cl)c(Cl)nc2[nH]1`, for which the IC50 result is “inactive”.
Consider `CCCN(CC(=O)Nc1ccccc1C)C(=O)c1ccc(-c2ccc(C(C)=O)cc2)o1`, for which the 50% inhibitory concentration (IC50) was 14.7 µM.
The figure for `COc1ccc(Cl)cc1NC(=O)Cn1nnc(C(=O)NCc2ccc3c(c2)OCO3)c1N` is 10.4 µM; for `CC(=O)Nc1nc(C)c(-c2csc(Nc3ccc(S(N)(=O)=O)cc3)n2)s1` it is 11.7 µM; for `Cc1ccc(C(C(=O)NCC2CCCO2)N(C(=O)c2snc(C(N)=O)c2N)c2ccc(F)cc2)o1` (stereo not drawn) it is > 100 µM (inactive).
The entry for `CSc1ccc(/C=N/n2nnnc2N)cc1` is “inactive”; for `Nc1c(C(=O)Nc2ccccc2)c2nc3ccccc3nc2n1CCCN1CCOCC1` it is “inactive”; for `COc1ccccc1N1CCN(C(=O)c2cc3c(=O)n4cccc(C)c4nc3s2)CC1` it is “inactive”.
The entry for `CCOC(=O)c1cc2c(=O)n3ccccc3nc2n(C(C)C)c1=NC(=O)c1ccncc1` is “inactive”.
Turning to `Nc1cccc2c(=O)[nH][nH]c(=O)c12`, the IC50 entry was “inactive”.
Regarding `COc1cc(/C=N/Nc2nc3ccccc3[nH]2)cc(Br)c1OCC(=O)N(C)C`, the IC50 result is “inactive”.
The entry for `CCCCCCc1c(C)c2ccc(OCC(=O)N3CCC[C@H]3C(=O)O)c(C)c2oc1=O` is “inactive”.
The result for `CSc1cnc2c(=O)n(C)c(=O)[nH]c2n1` reads “inactive”.
For the compound `Cn1nc(/C=C/c2ccccc2)ccc1=O`, the IC50 entry is “inactive”.
With `Cc1cccn2c(=O)c3cc(C(=O)N4CCN(Cc5ccccc5)CC4)sc3nc12`, the IC50 was 17.9 µM.
With `O=C(N/N=C/c1cccnc1)c1ccc(CN2c3cccc4cccc(c34)S2(=O)=O)cc1`, the IC50 result is “inactive”.
On to `CC(=O)Nc1cc(-c2ccc(N3CCN(C)CC3)cc2)cn2c(-c3ccc(F)cc3)cnc12`, for which the IC50 result was “inactive”.
The result for `O=C(Nc1cccnc1Cl)c1cc(-c2cccc(O)c2)on1` reads 13.9 µM.
On to `CC(C)(C)c1ccc(/C=C2\CCn3c2nc2cc(C(=O)O)ccc2c3=O)cc1`, for which the IC50 entry is “inactive”.
The result for `Nc1nnc(-c2cc3ccccc3oc2=O)s1` reads > 100 µM (inactive); that for `COc1ccc(CC(=O)N/N=C\c2cc(Br)c(O)c(Br)c2)cc1`, “inactive”.
For the compound `CCOc1ccc(NC(=O)COC(=O)c2ccc3ncsc3c2)cc1OCC`, the IC50 result was “inactive”.
The result for `Cc1ccc(-c2cc(-c3ccc(C)cc3)[n+](-c3ccc(C(=O)[O-])cc3)c(-c3ccc(C)cc3)c2)cc1` reads “inactive”; that for `CCOC(=O)N1CCN(S(=O)(=O)c2ccc3c4c(cccc24)C(=O)N3)CC1`, “inactive”; that for `Cc1cc(NS(=O)(=O)c2ccc(NS(=O)(=O)c3ccc(Br)cc3)cc2)no1`, “inactive”.
Consider `CN(C)c1ccc(/C=N/NC(=O)CCc2nc3ccccc3[nH]2)cc1`, for which the IC50 entry is “inactive”.
`CC(=O)Nc1ccc(NC(=O)c2cc(-c3ccc(C)cc3O)n[nH]2)cc1`: the IC50 is 9.68 µM.
